The source made the active and inactive calls. No cut-off for these calls is given here.

Experiment [1] deals with Escherichia coli. Put plainly: Induction of Escherichia coli supercoiled pBR322 DNA cleavage at 50 uM after 24 hrs at 25 degC by agarose gel electrophoresis.
Experiment [2] is described as follows: Induction of alkylation of 5'-FAM-labelled scrambled duplex oligonucleotide DNA (unknown origin) at guanine residues G1 to G4 at 50 uM after 24 hrs by sequencing gel analysis.
A short description of experiment [3]: Induction of alkylation of 5'-FAM-labelled scrambled duplex oligonucleotide DNA (unknown origin) at guanine residues G1 to G4 after 24 hrs by sequencing gel analysis.
Experiment [4] in a line: Induction of alkylation of 5'-FAM-labelled scrambled duplex oligonucleotide DNA (unknown origin) at guanine residues G1 to G4 at 5 to 50 uM after 24 hrs by sequencing gel analysis.
Experiment [5] relates to Escherichia coli. As to the kind of experiment: Induction of Escherichia coli supercoiled pBR322 DNA cleavage assessed as formation of linear form of DNA at 0.5 to 50 uM after 24 hrs at 25 degC by agarose gel electrophoresis.
Experiment [6] relates to Escherichia coli. Put plainly: Induction of Escherichia coli supercoiled pBR322 DNA cleavage assessed as formation of open circular form of DNA after 24 hrs at 25 degC by agarose gel electrophoresis.

For the molecule `O=C(O)CCCc1ccc(N(CCCl)CCCl)cc1`, the outcome in experiment [1] and in experiment [2] was inactive. For `CC1(C)CC(Cl)CN(CCCC[C@@H](C(=O)Oc2cccc3ccccc23)N2CC(Cl)CC(C)(C)C2)C1` (some centres not stated), in experiment [3], the Activity entry is “Dose-dependent effect”. Regarding `CC1(C)CC(Cl)CN(CCCC[C@@H](C(=O)OCc2ccc3c(c2)C(=O)c2ccccc2C3=O)N2CC(Cl)CC(C)(C)C2)C1` (some centres not stated), in experiment [4], the result was Active. Also, the outcome in experiment [5] was inactive. Besides, the Activity result in experiment [6] is “Dose-dependent effect”. Regarding `COc1ccc(OC(=O)[C@H](CCCCN2CC(Cl)CC(C)(C)C2)N2CC(Cl)CC(C)(C)C2)c2ccccc12` (some centres not stated), the Activity entry in experiment [3] was “Dose-dependent effect”.

For the origin of these results see ChEMBL document CHEMBL3621105, “Synthesis and evaluation of a bis-3-chloropiperidine derivative incorporating an anthraquinone pharmacophore” (Bioorg Med Chem Lett, 2015).
